# Source: PubChem BioAssay (NCI)
# Several values for one entry are separate records, joined by “and”; a condition that tells them apart may be missing. Equal entries are not always repeated.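 48-hour exposure; five concentrations; linearly interpolated endpoints. Here, GI50 denotes the concentration required for 50% inhibition of growth. At the TGI there is no net growth.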
# Tests used:
# Assay in all cases: NCI anticancer screen, dose series, 48 h
# CCRF-CEM leukemia = test system: CCRF-CEM leukemia
# COLO 205 colon = test system: COLO 205 colon
# K-562 leukemia = test system: K-562 leukemia
# KM12 colon = test system: KM12 colon
# NCI-H522 lung = test system: NCI-H522 lung
# RPMI-8226 leukemia = test system: RPMI-8226 leukemia
# SK-OV-3 ovarian = test system: SK-OV-3 ovarian
# TK-10 renal = test system: TK-10 renal
# UACC-62 melanoma = test system: UACC-62 melanoma
# UO-31 renal = test system: UO-31 renal
SMILES,GI50 (CCRF-CEM leukemia),TGI (CCRF-CEM leukemia),GI50 (COLO 205 colon),TGI (COLO 205 colon),GI50 (K-562 leukemia),TGI (K-562 leukemia),GI50 (KM12 colon),TGI (KM12 colon),GI50 (NCI-H522 lung),TGI (NCI-H522 lung),GI50 (RPMI-8226 leukemia),TGI (RPMI-8226 leukemia),GI50 (SK-OV-3 ovarian),TGI (SK-OV-3 ovarian),GI50 (TK-10 renal),TGI (TK-10 renal),GI50 (UACC-62 melanoma),TGI (UACC-62 melanoma),GI50 (UO-31 renal),TGI (UO-31 renal)
CSc1nc(-c2cccc(NC(=O)CCl)c2)c(C#N)c(=O)n1C,0.0989 µM,9.37 µM,1.7 µM,3.94 µM,1.28 µM,> 100 µM,1.82 µM,3.54 µM,1.12 µM,3.21 µM,1.75 µM,4.88 µM,12.5 µM,48.1 µM,2.38 µM,5.53 µM,1.5 µM,3.73 µM,1.47 µM,2.82 µM
N#CCCn1c(CCC(=O)Nc2ccc(Cl)cc2Cl)n[nH]c1=S,–,> 100 µM,–,> 100 µM,–,> 100 µM,–,> 100 µM,–,> 100 µM,–,> 100 µM,–,> 100 µM,–,> 100 µM,–,> 100 µM,–,> 100 µM
O=C(CN1CCN(c2ccccn2)CC1)Nc1ccc(Cl)cc1C(=O)c1ccccc1Cl,9.99 µM,> 100 µM,> 100 µM,> 100 µM,3.55 µM,> 100 µM,7.73 µM,> 100 µM,16.6 µM,> 100 µM,4.64 µM,> 100 µM,> 100 µM,> 100 µM,> 100 µM,> 100 µM,12.8 µM,> 100 µM,9.38 µM,> 100 µM
COC(=O)[C@]1(C)CC[C@]2(C)CC[C@]3(C)C(=CC(=O)[C@@H]4[C@@]5(C)CCC(=O)NC(C)(C)[C@@H]5CC[C@]43C)[C@@H]2C1,15.1 µM,44.6 µM,17.1 µM,50.4 µM,7.4 µM,66.5 µM,16.4 µM,38 µM,18.2 µM,69.3 µM,12 µM,34.7 µM,24 µM,> 100 µM,40.2 µM,> 100 µM,15.3 µM,38.2 µM,16.9 µM,33.3 µM
COc1c(OC2OC(CO)C(O)C(O)C2O)cc2c(c1OC)-c1ccc(OC)c(=O)cc1[C@@H](NC(C)=O)CC2 (stereo partly drawn),–,> 100 µM,–,> 100 µM,–,> 100 µM,–,> 100 µM,–,99.3 µM,–,> 100 µM,–,> 100 µM,–,> 100 µM,–,> 100 µM,–,> 100 µM
NC(=S)N=Nc1c(O)[nH]c2ccccc12,253 µM,> 1000 µM,–,> 1000 µM,–,> 1000 µM,217 µM,> 1000 µM,159 µM,343 µM,194 µM,708 µM,209 µM,431 µM,165 µM,326 µM,209 µM,497 µM,39 µM and 126 µM,504 µM
NS(=O)(=O)c1ccc(N=Nc2c(=O)[nH]c3ccc4[nH]cccc4c23)cc1,0.202 µM,> 25 µM,0.376 µM,0.913 µM,0.721 µM,> 25 µM,0.792 µM,4.32 µM,0.197 µM,0.818 µM,1.97 µM,14.2 µM,1.25 µM,> 25 µM,0.699 µM,2.24 µM,0.487 µM,1.62 µM,1.68 µM,> 25 µM
Cc1ccccc1NC(=O)CC(=O)n1nc(-c2ccccc2)c(N=Nc2ccc([N+](=O)[O-])cc2)c1-c1ccccc1,–,> 100 µM,–,30.5 µM,–,48.9 µM,–,61.5 µM,–,45.5 µM,–,69.4 µM,–,57.7 µM,–,> 100 µM,–,29.6 µM,–,34.8 µM
CCCCCCCCC(=O)NCCN(CCN)C(=O)CCCCCCCC,–,8.19 µM,–,6.72 µM,–,8.27 µM,–,6.01 µM,–,7.21 µM,–,6.25 µM,–,29.9 µM,–,30 µM,–,21.9 µM,–,26.6 µM
CC(=O)N1CCN(C=S)CC1,–,> 100 µM,–,> 100 µM,–,> 100 µM,–,> 100 µM,–,> 100 µM,–,> 100 µM,–,> 100 µM,–,> 100 µM,–,> 100 µM,–,> 100 µM
CC(C)Cn1cnc2c(SCc3ccccn3)nc(N)nc21,–,> 100 µM,–,> 100 µM,–,> 100 µM,–,> 100 µM,–,> 100 µM,–,> 100 µM,–,> 100 µM,–,> 100 µM,–,> 100 µM,–,> 100 µM
